{"source": "patent US20250120969A1", "about": "“METHODS AND COMPOSITIONS FOR TREATING INFLAMMATION INJURY IN THE LUNGS” (CalciMedica, Inc., priority 2022, published 2025)", "key": {"human lymphocytes": {"test_system": "human lymphocytes", "assay": "In vitro cytokine release in human lymphocytes", "type": "cell-based", "description": "(§1) Preclinical data supports the use of CRAC inhibitors (e.g. N-(5-(6-Chloro-2,2-difluorobenzo[d][1,3]dioxol-5-yl)pyrazin-2-yl)-2-fluoro-6-methylbenzamide, Compound 1) in severe COVID-19 pneumonia."}, "[1]": {"test_system": "lung tissue cytokines and neutrophil infiltration", "assay": "Animal models of acute pancreatitis (AP) and lung injury", "type": "in vivo", "description": "as §1"}, "[2]": {"test_system": "patients with AP and accompanying SIRS plus hypoxemia", "assay": "Clinical and pharmacodynamic study in patients with acute pancreatitis, SIRS and hypoxemia", "settings": "human, in vivo"}, "CRAC channels": {"target": "CRAC channels (Homo sapiens, UniProt Q96D31)", "sequence (Q96D31 whole entry)": "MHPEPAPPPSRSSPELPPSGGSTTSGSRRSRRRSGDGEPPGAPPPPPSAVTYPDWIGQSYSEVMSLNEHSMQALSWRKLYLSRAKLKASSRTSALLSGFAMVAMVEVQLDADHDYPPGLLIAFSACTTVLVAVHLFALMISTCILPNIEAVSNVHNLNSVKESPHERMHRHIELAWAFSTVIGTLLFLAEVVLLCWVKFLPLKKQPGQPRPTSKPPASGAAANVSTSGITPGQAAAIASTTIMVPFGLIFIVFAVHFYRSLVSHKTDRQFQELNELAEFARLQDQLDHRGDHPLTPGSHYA", "assay": "CRAC channel inhibition"}}}
{"smiles": "Cc1cccc(F)c1C(=O)Nc1cnc(-c2cc3c(cc2Cl)OC(F)(F)O3)cn1", "note": "[Compound 1, N-(5-(6-Chloro-2,2-difluorobenzo[d][1,3]dioxol-5-yl)pyrazin-2-yl)-2-fluoro-6-methylbenzamide]", "values": [{"measurement": "Release of multiple cytokines", "setting": "human lymphocytes", "value": "inhibits release of multiple cytokines"}, {"measurement": "Cytokines and neutrophil infiltration in lung tissue", "setting": "[1]", "value": "inhibit cytokines and neutrophil infiltration in lung tissue"}, {"measurement": "IL-6 levels in patients", "setting": "[2]", "value": "marked reduction in IL-6 levels"}, {"measurement": "Respiratory dysfunction in patients", "setting": "[2]", "value": "beneficial effects on respiratory dysfunction"}, {"measurement": "Inhibition of CRAC channels", "setting": "CRAC channels", "value": "potent and selective"}]}
